# Patent publication US8148391B2 (Cephalon, Inc., priority 2006, dated 2012)
# Like-named read-outs stand apart in the source and are kept apart here.
# What was measured:
# [1] = target: T1, baculovirus-expressed ALK (Homo sapiens, UniProt Q9UM73); test: ALK Kinase Assay (ELISA-type, time-resolved fluorescence); assay type: biochemical
# T1 construct: host or cells: baculovirus expression system
# Summary of the method: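 Substrate coating: phospholipase C-γ, 10 μg/mL in TBS. Kinase step: 30 ng/ml ALK, 15 min, 37° C. Detection and analysis: Eu-N1 PT66 antibody, with IC50 fitted as a sigmoidal variable-slope dose-response curve.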
# [2] = target: T2, c-Met (cytoplasmic domain) (Homo sapiens, UniProt P08581); test: c-Met Kinase Assay (same methods as for ALK, with modifications); assay type: biochemical
# T2 construct: 10 ng/mL c-Met (cytoplasmic domain, Invitrogen Corporation #PV3143); purchased Invitrogen Corporation PV3143
# Summary of the method: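 This plate-based kinase format uses immobilized phospholipase C-γ as substrate, phosphorylated by c-Met cytoplasmic domain (10 ng/mL) at 37° C for 15 minutes.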
# [3] = ALK kinase inhibition, 1 μM ATP, read-out: ALK Activity
# [4] = c-Met kinase inhibition, 1 μM ATP, read-out: cMet Activity
# [5] = 1 μM ATP (Km level), read-out: ALK Activity (ALK Kinase Inhibition, IC50)
# [6] = 1 μM ATP (Km level), read-out: cMet Activity (c-Met Kinase Inhibition, IC50)
# [7] = 1 μM ATP (Km level), 30 ng/ml ALK, 37° C., 15 minutes, read-out: ALK Activity (ALK kinase inhibition, IC50 class)
# [8] = 1 μM ATP (Km level), 10 ng/mL c-Met, read-out: cMet Activity (c-Met kinase inhibition, IC50 class)
# [9] = ALK kinase inhibition, 1 μM ATP (Km level), read-out: ALK Activity
# [10] = c-Met kinase inhibition, 1 μM ATP (Km level), read-out: cMet Activity
# T1 sequence (Q9UM73 19-1620): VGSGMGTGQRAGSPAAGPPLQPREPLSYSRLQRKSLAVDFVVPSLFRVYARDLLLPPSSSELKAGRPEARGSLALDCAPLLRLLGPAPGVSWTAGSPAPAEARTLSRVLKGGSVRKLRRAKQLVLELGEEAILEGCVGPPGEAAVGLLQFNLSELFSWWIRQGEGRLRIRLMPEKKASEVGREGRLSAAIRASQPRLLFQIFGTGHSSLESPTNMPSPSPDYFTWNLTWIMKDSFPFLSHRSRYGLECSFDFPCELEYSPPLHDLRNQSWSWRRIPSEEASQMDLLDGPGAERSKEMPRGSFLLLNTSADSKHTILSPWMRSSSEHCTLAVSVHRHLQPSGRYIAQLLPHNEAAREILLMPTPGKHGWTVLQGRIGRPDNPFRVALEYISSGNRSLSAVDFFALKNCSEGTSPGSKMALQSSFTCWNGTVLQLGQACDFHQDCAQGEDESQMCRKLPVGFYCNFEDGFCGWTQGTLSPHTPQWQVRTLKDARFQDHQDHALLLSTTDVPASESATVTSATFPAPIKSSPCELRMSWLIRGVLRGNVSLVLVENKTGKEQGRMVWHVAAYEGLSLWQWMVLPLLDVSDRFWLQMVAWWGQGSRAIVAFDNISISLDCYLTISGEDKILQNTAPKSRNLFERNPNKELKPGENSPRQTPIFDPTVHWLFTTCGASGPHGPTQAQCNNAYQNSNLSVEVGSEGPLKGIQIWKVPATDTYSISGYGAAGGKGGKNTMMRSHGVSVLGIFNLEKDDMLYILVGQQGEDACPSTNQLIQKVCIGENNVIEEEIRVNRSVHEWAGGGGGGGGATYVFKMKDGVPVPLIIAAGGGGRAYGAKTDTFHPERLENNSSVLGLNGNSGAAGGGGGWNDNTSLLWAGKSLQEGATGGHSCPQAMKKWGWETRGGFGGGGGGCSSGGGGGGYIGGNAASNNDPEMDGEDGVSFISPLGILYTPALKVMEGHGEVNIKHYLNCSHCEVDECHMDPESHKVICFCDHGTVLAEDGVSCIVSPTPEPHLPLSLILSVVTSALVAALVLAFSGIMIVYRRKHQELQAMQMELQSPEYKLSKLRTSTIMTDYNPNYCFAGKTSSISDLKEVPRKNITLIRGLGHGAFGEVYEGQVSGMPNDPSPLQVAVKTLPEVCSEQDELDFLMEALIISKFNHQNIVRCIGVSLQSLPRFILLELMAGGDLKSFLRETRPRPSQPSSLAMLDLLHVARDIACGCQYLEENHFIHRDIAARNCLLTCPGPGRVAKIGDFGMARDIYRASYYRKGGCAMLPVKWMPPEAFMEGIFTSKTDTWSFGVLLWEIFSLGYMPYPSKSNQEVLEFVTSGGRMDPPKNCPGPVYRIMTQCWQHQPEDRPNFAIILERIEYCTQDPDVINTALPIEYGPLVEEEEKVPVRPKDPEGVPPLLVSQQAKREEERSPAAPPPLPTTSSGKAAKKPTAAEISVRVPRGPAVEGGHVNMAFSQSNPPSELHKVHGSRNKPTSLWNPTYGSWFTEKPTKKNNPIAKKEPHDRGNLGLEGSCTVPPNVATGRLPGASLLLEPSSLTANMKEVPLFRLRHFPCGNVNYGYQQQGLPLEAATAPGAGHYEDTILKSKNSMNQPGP
# T2 sequence (P08581 956-1390 limits assumed): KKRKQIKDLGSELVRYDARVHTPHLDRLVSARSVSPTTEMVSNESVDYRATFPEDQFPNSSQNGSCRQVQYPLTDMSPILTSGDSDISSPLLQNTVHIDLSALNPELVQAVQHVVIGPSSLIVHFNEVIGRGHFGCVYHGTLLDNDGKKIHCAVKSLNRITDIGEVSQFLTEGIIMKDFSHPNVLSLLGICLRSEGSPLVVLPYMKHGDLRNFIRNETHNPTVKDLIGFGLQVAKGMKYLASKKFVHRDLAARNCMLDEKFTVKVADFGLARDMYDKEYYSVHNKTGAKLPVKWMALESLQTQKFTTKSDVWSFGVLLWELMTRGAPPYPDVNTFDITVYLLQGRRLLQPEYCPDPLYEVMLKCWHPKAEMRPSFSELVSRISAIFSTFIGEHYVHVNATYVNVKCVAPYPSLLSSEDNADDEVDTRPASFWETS
smiles,measurement,setting,value
"CNC(=O)c1cccc(F)c1Nc1nc(Nc2ccc3c(c2)-n2ccnc2CCC3)ncc1Cl [Example 1837, 2-[5-Chloro-2-(5,6-dihydro-4H-3,10b-diaza-benzo[e]azulen-9-ylamino)-pyrimidin-4-ylamino]-3-fluoro-N-methyl-benzamide]",IC50,[1]; [3],< 0.1 µM
same,IC50,[2]; [4],< 0.1 µM
"CN1CCN(C2CCc3ccc(Nc4ncc(Cl)c(Nc5ccccc5S(=O)(=O)N(C)C)n4)cc3CC2)CC1 (centres unmarked) [Example 890, 2-{5-Chloro-2-[7-(4-methyl-piperazin-1-yl)-6,7,8,9-tetrahydro-5H-benzocyclohepten-2-ylamino]-pyrimidin-4-ylamino}-N,N-dimethyl-benzenesulfonamide]",IC50,[1]; [5],< 0.1 µM
same,IC50,[2]; [6],0.1 to 1 µM
"COc1cc2c(cc1Nc1ncc(Cl)c(Nc3ccccc3S(=O)(=O)C(C)C)n1)CCN(C(CF)CF)CC2 [Example 1394, Chloro-N(2)-[3-(2-fluoro-1-fluoromethyl-ethyl)-8-methoxy-2,3,4,5-tetrahydro-1H-benzo[d]azepin-7-yl]-N(4)-[2-(propane-2-sulfonyl)-phenyl]-pyrimidine-2,4-diamine]",IC50,[1]; [7],< 0.1 µM
same,IC50,[2]; [8],> 10 µM
"COc1cc2c(cc1Nc1ncc(Cl)c(N[C@@H]3CCCC[C@H]3NS(C)(=O)=O)n1)CCN(CC(F)(F)F)CC2 [Example 248, N-((1R,2R)-2-{5-Chloro-2-[8-methoxy-3-(2,2,2-trifluoro-ethyl)-2,3,4,5-tetrahydro-1H-benzo[d]azepin-7-ylamino]-pyrimidin-4-ylamino}-cyclohexyl)-methanesulfonamide]",IC50,[1]; [9],< 0.1 µM
same,IC50,[2]; [10],> 10 µM
"CC1(C)CCC(=O)Nc2cc(Nc3ncc(Cl)c(Nc4c(F)cccc4OCC#N)n3)ccc21 [Example 930, {2-[5-Chloro-2-(5,5-dimethyl-2-oxo-2,3,4,5-tetrahydro-1H-1-benzazepin-8-ylamino)-pyrimidin-4-ylamino]-3-fluoro-phenoxy}-acetonitrile]",IC50,[1]; [5],< 0.1 µM
same,IC50,[2]; [6],< 0.1 µM
"CNC(=O)c1ccccc1Nc1nc(Nc2cc3c(cc2OC)N(C)C(=O)OCC3)ncc1C(F)(F)F [Example 1513, 2-[2-(3-Methoxy-5-methyl-6-oxo-5,6,8,9-tetrahydro-7-oxa-5-aza-benzocyclohepten-2-ylamino)-5-trifluoromethyl-pyrimidin-4-ylamino]-N-methyl-benzamide]",IC50,[1]; [3],< 0.1 µM
same,IC50,[2]; [4],0.1 to 1 µM
"CCN1CCCOc2cc(Nc3ncc(Cl)c(N[C@@H]4CCCC[C@H]4NS(C)(=O)=O)n3)c(F)cc21 [Example 1687, N-{(1R,2R)-2-[5-Chloro-2-(9-ethyl-2-fluoro-6,7,8,9-tetrahydro-5-oxa-9-aza-benzocyclohepten-3-ylamino)-pyrimidin-4-ylamino]-cyclohexyl}-methanesulfonamide]",IC50,[1]; [3],< 0.1 µM
same,IC50,[2]; [4],1 to 10 µM
"CCN1CCc2cc(Nc3ncc(Cl)c(Nc4ccc(N5CCOCC5)cc4OC)n3)c(OC)cc2CC1=O [Example 254, 7-[5-Chloro-4-(2-methoxy-4-morpholin-4-yl-phenylamino)-pyrimidin-2-ylamino]-3-ethyl-8-methoxy-1,3,4,5-tetrahydro-benzo[d]azepin-2-one]",IC50,[1]; [9],< 0.1 µM
same,IC50,[2]; [10],> 10 µM
"CNC(=O)c1ccccc1Nc1nc(Nc2ccc3c(c2)C2CNCC3O2)ncc1Cl (centres unmarked) [Example 65, 2-[5-Chloro-2-(12-oxa-10-aza-tricyclo[6.3.1.0*2,7*]dodeca-2(7),3,5-trien-4-ylamino)-pyrimidin-4-ylamino]-N-methyl-benzamide]",IC50,[1]; [9],0.1 to 1 µM
same,IC50,[2]; [10],0.1 to 1 µM
"CNC(=O)c1ccc(Nc2nc(Nc3cc4c(cc3OC)CCN(Cc3ncco3)CC4)ncc2Cl)c(OC)c1 [Example 1182, 4-[5-Chloro-2-(8-methoxy-3-oxazol-2-ylmethyl-2,3,4,5-tetrahydro-1H-benzo[d]azepin-7-ylamino)-pyrimidin-4-ylamino]-3-methoxy-N-methyl-benzamide]",IC50,[1]; [7],< 0.1 µM
same,IC50,[2]; [8],> 10 µM
"COCCN1CCc2ccc(Nc3ncc(Cl)c(N[C@@H]4[C@H](C(N)=O)[C@@H]5C=C[C@H]4C5)n3)cc2CC1 (relative stereo) [Example 459, (2-endo, 3-endo)-3-{5-Chloro-2-[3-(2-methoxy-ethyl)-2,3,4,5-tetrahydro-1H-benzo[d]azepin-7-ylamino]-pyrimidin-4-ylamino}-bicyclo[2.2.1]hept-5-ene-2-carboxylic acid amide]",IC50,[1]; [9],< 0.1 µM
same,IC50,[2]; [10],1 to 10 µM
"CCNC(=O)c1cccc(F)c1Nc1nc(Nc2cccc3c2OCCCC3(C)C)ncc1Cl [Example 874, 2-[5-Chloro-2-(5,5-dimethyl-2,3,4,5-tetrahydro-benzo[b]oxepin-9-ylamino)-pyrimidin-4-ylamino]-N-ethyl-3-fluoro-benzamide]",IC50,[1]; [5],0.1 to 1 µM
same,IC50,[2]; [6],> 10 µM
"COc1cc2c(cc1Nc1ncc(Cl)c(Nc3ccc(N4CCOCC4)cc3C)n1)CCN(CC(=O)N(C)C)CC2 [Example 801, 2-{7-[5-Chloro-4-(2-methyl-4-morpholin-4-yl-phenylamino)-pyrimidin-2-ylamino]-8-methoxy-1,2,4,5-tetrahydro-benzo[d]azepin-3-yl}-N,N-dimethyl-acetamide]",IC50,[1]; [5],< 0.1 µM
same,IC50,[2]; [6],> 10 µM
"CC(=O)NCCOc1cccc(F)c1Nc1nc(Nc2ccc3c(c2)CCOC(=O)N3C)ncc1Cl [Example 1782, N-(2-{2-[5-Chloro-2-(5-methyl-6-oxo-5,6,8,9-tetrahydro-7-oxa-5-aza-benzocyclohepten-2-ylamino)-pyrimidin-4-ylamino]-3-fluoro-phenoxy}-ethyl)-acetamide]",IC50,[1]; [3],1 to 10 µM
same,IC50,[2]; [4],1 to 10 µM
"CC(=O)NCc1ccccc1Nc1nc(Nc2ccc3c(c2)CCOC(=O)N3C)ncc1Cl [Example 1793, N-{2-[5-Chloro-2-(5-methyl-6-oxo-5,6,8,9-tetrahydro-7-oxa-5-aza-benzocyclohepten-2-ylamino)-pyrimidin-4-ylamino]-benzyl}-acetamide]",IC50,[1]; [3],0.1 to 1 µM
same,IC50,[2]; [4],1 to 10 µM
"COCCNC1CCCc2c(ccc(Nc3ncc(Cl)c(Nc4ccccc4S(=O)(=O)C(C)C)n3)c2OC)C1 (centres unmarked) [Example 959, 5-Chloro-N(2)-[1-methoxy-6-(2-methoxy-ethylamino)-6,7,8,9-tetrahydro-5H-benzocyclohepten-2-yl]-N(4)-[2-(propane-2-sulfonyl)-phenyl]-pyrimidine-2,4-diamine]",IC50,[1]; [5],< 0.1 µM
same,IC50,[2]; [6],> 10 µM
"CNC(=O)c1c(C)cccc1Nc1nc(Nc2ccc3c(c2)CCOC(=O)N3C)ncc1Cl [Example 1755, 2-[5-Chloro-2-(5-methyl-6-oxo-5,6,8,9-tetrahydro-7-oxa-5-aza-benzocyclohepten-2-ylamino)-pyrimidin-4-ylamino]-6,N-dimethyl-benzamide]",IC50,[1]; [3],0.1 to 1 µM
same,IC50,[2]; [4],0.1 to 1 µM
"CCN1CCNCc2cc(OC)c(Nc3ncc(Cl)c(N[C@H]4[C@@H](C(N)=O)[C@@H]5C=C[C@H]4C5)n3)cc21 [Example 1460, (1S,2S,3R,4R)-3-[5-Chloro-2-(1-ethyl-7-methoxy-2,3,4,5-tetrahydro-1H-benzo[e][1,4]diazepin-8-ylamino)-pyrimidin-4-ylamino]-bicyclo[2.2.1]hept-5-ene-2-carboxylic acid amide]",IC50,[1]; [3],< 0.1 µM
same,IC50,[2]; [4],> 10 µM
"CCNC(=O)c1ccccc1Nc1nc(Nc2cc3c(cc2OC)CC(=O)NCC3)ncc1Cl [Example 265, 2-[5-Chloro-2-(8-methoxy-2-oxo-2,3,4,5-tetrahydro-1H-benzo[d]azepin-7-ylamino)-pyrimidin-4-ylamino]-N-ethyl-benzamide]",IC50,[1]; [9],< 0.1 µM
same,IC50,[2]; [10],0.1 to 1 µM
